One experiment concerns the target T1, GPX4 (Mus musculus, UniProt O70325).
T1 construct: tissue Charles River Laboratories; host or cells: skin of BALB/c mice
Nature of the experiment: Electrophoretic gel mobility shift of GPX4 in skin of treated mice (target engagement). Format: in vivo. The conditions noted are these: skin of BALB/c mice exposed to mitomycin C; 24 hr treatment. The procedure: An electrophoretic gel mobility shift assay of GPX4 was applied to determine the level of target engagement of compound 32 as a direct biomarker in tissues. For example, target engagement of compound 32 was assessed in the skin of mice exposed to mitomycin C, a potent inducer of cellular senescence. Following 24 hr treatment with compound 32, the skin of treated BALB/c mice (Charles River Laboratories) was collected and lysed by IGEPAL CA-630 and sodium dodecyl sulfate (SDS) in the presence of a protease inhibitor cocktail (4693132001, Roche) and benzonase (E1014, Sigma-Aldrich). The soluble protein fraction was isolated and heat-denatured in the presence of dithiothreitol (DTT). Proteins were electrophoretically separated using a Bis-Tris protein gel with 12% polyacrylamide concentration. Following the transfer of proteins to a PVDF membrane, the membrane was probed with an anti-GPX4 monoclonal antibody (ab125066, Abcam) and anti-beta-Actin (4970, Cell Signaling Technology), followed by an anti-rabbit IgG HRP conjugated antibody (31460, ThermoFisher). Chemiluminescent following HRP substrate addition (34580, ThermoFisher) was detected by the ChemiDoc XRS+System (BioRad).

Experiment [1] has as its system senescent normal human dermal fibroblasts. The experiment is described as follows: Rescue of compound-induced cell death by ferrostatin-1 in senescent fibroblasts. Format: cell-based. The conditions noted are these: compounds at 1.11 μM, ferrostatin-1 at 0.375 and 6 μM; 24 hours; CellTiter-Glo. An excerpt:
Cell death induced by ferroptosis-inducing agents can be characterized by rescuing the cellular response with radical trapping agents that prevent the accumulation of phospholipid hydroperoxides (Stockwell et al., Cell Chem Biol 2020 27 (4): 365-375). As such, ferrostatin-1 was identified as a potent inhibitor of ferroptosis for which a free radical trapping mechanism had been reported (Skouta et al., J Am Chem Soc 2014 136 (12): 4551-6; Zika et al., ACS Cent Sci. 2017 3 (3): 232-243; and Miotto et al., Redox Biol. 2020; 101328). To determine whether compounds 18 and 32 induce ferroptosis in senescent cells, normal human dermal fibroblasts were induced to undergo senescence by treatment with a sublethal concentration of chemotherapy (bleomycin sulfate), followed by a rest period without chemotherapy similarly to previous reports (Aoshiba et al., 2003 3:436-43). Cells were maintained in DMEM media (high glucose, 4 mM L-glutamine, no sodium pyruvate) supplemented with 10% heat-inactivated fetal bovine serum in a humidified incubator at 37° C. with 5% carbon dioxide and 5% oxygen. Cellular senescence was qualified by reduced EdU (5-ethynyl-2′-deoxyuridine) incorporation and increased SA-β-Gal (senescence-associated beta-galactosidase) staining compared to proliferating untreated cells. Senescent fibroblasts were plated into 96-well plates at a density of 10,000 cells per well. The next day, ferrostatin-1 was diluted in cell medium to reach a final concentration of 0.375 and 6 μM and was added to cells. Approximately 30 minutes after the addition of ferrostatin-1, compounds 18 and 32 at 1.11 μM, or the peptidyl transfer inhibitor puromycin at 10 μM were added to cells. Cells were incubated with the compounds for 24 hours, at which point viability was quantified using the CellTiter-Glo assay (Promega). The viability for treated cells was determined relative to untreated control cells.

Structures are written as SMILES.

T1 sequence (O70325 whole entry): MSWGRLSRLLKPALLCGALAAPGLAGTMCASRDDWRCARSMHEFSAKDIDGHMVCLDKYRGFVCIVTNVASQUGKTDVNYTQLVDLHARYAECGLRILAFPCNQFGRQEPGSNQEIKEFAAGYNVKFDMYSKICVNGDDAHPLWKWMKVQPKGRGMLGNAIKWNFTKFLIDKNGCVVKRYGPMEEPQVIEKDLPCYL

`C#CC(F)(F)[C@]1(O)CC[C@H]2[C@@H]3CCC4=CC(=NNC(=O)NC5CC5)CCC4=C3[C@H](c3ccc(C4CC4)cc3)C[C@@]21C` [Compound 32, N-cyclopropyl-2-((8S,11S,13S,14S,17S)-11-(4-cyclopropylphenyl)-17-(1,1-difluoroprop-2-yn-1-yl)-17-hydroxy-13-methyl-1,2,6,7,8,11,12,13,14,15,16,17-dodecahydro-3H-cyclopenta[a]phenanthren-3-ylidene)hydrazine-1-carboxamide]: the “GPX4 band shift in skin (target engagement)” value at GPX4 is “slower migrating band for GPX4 was observed”. Moreover, the “inhibition by ferrostatin-1 of compound-induced cell death” value in experiment [1] is “potently inhibits cell death induced by compounds 18 and 32”.

These data come from patent US12485132B2, “GPX4 inhibitors and senolytic compounds and uses thereof” (Rubedo Life Sciences, Inc., priority 2023, dated 2025).
